In US12150750B2, “D-glucose and its analogs as tracers to assess the glucose transporter function on blood-cerebrospinal fluid barrier and the functioning of the brain lymphatic system” (The Johns Hopkins University, priority 2020, dated 2024):

Experiments:
[1] = Validation of glucose uptake in brain using an MRS method; type: in vivo; details: mouse, intravenous, BALB/c mice, read-out: half-life time of glucose uptake measured by MRS
Method: (§1) The study was carried out under the approval of Johns Hopkins University animal care and use. Four female Tau4RΔK (Tau) mice (49) with an age of 7-8 months and four female age-matched C57BL/6J mice were used for the AD study. Two age-matched BALB/c mice were used for the validation of glucose uptake using an MRS method. The Tau mice were bred at Johns Hopkins University and the onset of tau tangles starts at the age of six months (49). A catheter was placed in the tail vein for glucose administration before placing the animal in the scanner.

[2] = literature reference 28; cited from earlier work
[3] = DGE onVDMP MRI at 3 T of D-glucose uptake and clearance in CSF of WT and APP/PS1 mice; type: in vivo, mouse; details: for ΔS at 2 min (CSF DGE signal difference) / ΔS at 30 min (CSF DGE signal difference): n=5
Excerpt: All animal experiments were approved by the Animal Ethics Committee and followed the institutional guidelines of Institutional Laboratory Animal Research Unit of City University of Hong Kong. […] APP/PS1 mice are double transgenic mice expressing a chimeric mouse/human amyloid precursor protein (Mo/HuAPP695swe) and a mutant human presenilin 1 (PS1-dE9), both directed to CNS neurons. Both mutations are associated with early-onset AD. Another six 6M WT mice were used for the control experiments.
The onVDMP sequence diagram is shown in (a) of FIG. 3. By setting a different binomial pulse number N, the saturation length is adjusted to image the parenchyma and CSF, respectively. In this study, the saturation length was set to 60 ms for imaging parenchyma and 900 ms for imaging CSF. DGE experiments on both parenchyma and CSF images are acquired in an alternate way in some embodiments during one acquisition, similar to the experiments in example 1.
When carrying out the MRI experiments on mice, anesthesia was induced and maintained using isoflurane at 2% and 1.5%, respectively. The isoflurane was mixed with 90% oxygen generated by an oxygen concentrator. The flow rate of oxygen generator was set to 2 liter per minute (LPM) and kept unchanged during the whole experiment. Mice were placed in a horizontal bore 3 T Bruker BioSpec animal scanner (Bruker, Germany). A 82-mm-diameter quadrature coil and a 23-mm-diameter mouse brain surface coil were used for transmitting and receiving signal, respectively. A catheter was placed in the tail vein for glucose administration before placing the animal in the scanner. A bolus of 0.15 mL filtered 50% D-glucose was injected into the mouse body through the tail vein over one minute (speed: 0.15 ml/min) using a MRI-compatible syringe pump (Harvard Apparatus). Mouse body temperature was maintained at 37° C. using a warming pad. Respiration and body temperature were continuously monitored using an MRI-compatible monitor system (SA Instruments, Inc). Before DGE acquisition, the B0 field over the mouse brain was shimmed using field-mapping and second-order shimming. The read-out module was rapid acquisition with refocused echoes (RARE) with TR/TE=2.5 s/4.7 ms, RARE factor=32, centric encoding, slice thickness=2 mm, a matrix size of 96×96 within a field of view (FOV) of 20×20 mm^2, resulting in a time resolution of 15 s for each pair of images (7.5 s for parenchyma and 7.5 s for CSF). A total number of 550 images were acquire for each DGE module, thus leading to a total scanning time of 1 h8 min 45 s. The glucose injection was started at 8 min 45 s and lasted for 1 min. […] The image slice was positioned based on a collected sagittal image of the mouse brain with the position of the coronal image slice set to −1.4 mm with respect to the anterior commissure (AC).
All image processing and data analyses were performed using custom written code in MATLAB (R2018b, MathWorks, USA). When calculating DGE kinetic curves, baseline signal Sbase was generated by averaging the 30 baseline images. Since the total number of DGE images was large ([…] for each mouse), every set of 15 images were averaged to visualize the dynamic process of glucose changes. Then Eq. 5 was used for each time point to construct the DGE kinetic curves after glucose administration.
The DGE data of CSF were fitted by a simple gamma variate model(66,67) for only the first 20 mins after glucose injection, giving an uptake rate and an estimate of the initial rate of clearance:
where A is an amplitude modulation parameter, μin represents the glucose uptake rate, μout represents the initial rate of clearance. […] The maximum signal that CSF DGE reached is directly extracted in some embodiments after fitting as Smax=max(ΔS′CSF(t)). For both parenchymal and CSF DGE curves, fitting was achieved using the built-in nonlinear least-squares curve fitting function in MATLAB. […]

[4] = Dynamic glucose enhanced (DGE) onVDMP MRI at 11.7 T of glucose uptake in brain parenchyma and CSF of WT and Tau mice; type: in vivo, mouse; details: for fitted ADGE (amplitude of glucose uptake at equilibrium) of parenchyma: i.v. bolus 0.15 mL 50% glucose, n=4; for half-life: female, mouse, 0.15 mL of 50% w/w glucose (0.5 g/mL)
Method: as §1
All MRI experiments were performed on a horizontal bore 11.7 T Bruker Biospec system (Bruker, Ettlingen, Germany) equipped with actively shielded gradients, with a maximum strength of 74 Gauss/cm. A 72 mm quadrature volume resonator was used as a transmitter and a 2×2 mouse phased array coil for acquisition. All animals were anesthetized using 2% isoflurane in medical air, followed by 1% to 1.5% isoflurane for maintenance during the MRI scan. The mouse head was positioned using a bite bar and two ear pins. During the MRI scan, mice were placed on a water-heated animal bed. Respiratory rate was monitored via a pressure sensor (SAII, Stony Brook, NY, USA) and maintained at 40-60 breaths per minute. The B0 field over the mouse brain was adjusted using field-mapping and second-order shimming.
The MRI sequence used for monitoring the glucose uptake in brain and CSF was onVDMP, illustrated in (a) of FIG. 3. The duration of each binomial pulse pair was 3 ms, and the length of a saturation module was proportional to the total number of binomial pulse pairs. Two independent onVDMP sequences with different saturation-module lengths (i.e. 36 ms and 300 ms) were repeated in an interleaved fashion to detect the glucose uptake in brain parenchyma and CSF, respectively. Other imaging parameters were: TR/TE=2.5 s/5 ms, RARE factor=23, slice thickness=1 mm, a matrix size of 196×128 within a FOV of 20×10 mm^2. The scan time for each onVDMP experiment was fixed to 7.5 s and the dynamic glucose enhanced (DGE) images were acquired continuously for 27.5 min. A bolus of 0.15 mL 50% w/w glucose (0.5 g/mL, clinical-grade dextrose, Hospira, Lake Forest, IL) was given at 10th min of the dynamic experiment through the tail vein using a syringe pump (Harvard Apparatus Holliston, MA, USA). The first five minutes of dynamic scan were used as dummy scans to make sure system reached steady-state.
According to R1ρ theory (50-52), the water signal intensity (S) after applying an onVDMP sequence is expressed in some embodiments as: S=S0e^−T^onvDMP^R^1ρ (1)
where S0 is the water signal intensity without saturation. Because ΔR1ρ induced by glucose infusion is relatively small (41-43,53,54), the normalized change of water signal intensity ΔZ is approximated in some embodiments as: ΔZ=(Sbase−S)/Sbase=1−e^−T^onvDMP^ΔR^1ρ≈TonVDMPΔR1ρ (2)
where Sbase is the referenced water signal intensity. In this study, the average of water signal intensity before glucose infusion was used as Sbase. The dynamic images are calculated in some embodiments by averaging N images within a certain time period (55): Save=Σn=1^NΔZ(n)/N (3)
To correct for motion between DGE images, image registration was applied using Medical Imaging Registration Toolbox (MIRT) (56). The regions of interest (ROIs) were selected by hand with the reference to mouse brain atlas (https://mouse.brain-map.org).
The glucose uptake curves measured by DGE MRI are fitted using exponential functions in some embodiments to allow quantitative comparison: ΔDGE(t)=ADGE(1−e^−t/T^u,DGE) (4)
where ΔDGE(t) is the DGE signal difference determined by onVDMP MRI. Tu,DGE is the glucose uptake lifetime. The half-life time of glucose uptake was calculated by the equation: Thalf=Tu*0.6931. ADGE represents the amplitudes of glucose uptake at equilibrium measured by onVDMP. […]

With `O=C[C@H](O)[C@@H](O)[C@H](O)[C@H](O)CO` [D-glucose] as the compound, how does the half-life [1] read?
Its half-life is 4.16 ± 0.69 min.

What about the “half-life time of glucose uptake, previous 13C MRS measurements” value [2] of the same compound?
Its value is 5.10 ± 0.11 min.

What about the “ΔS at 2 min (CSF DGE signal difference)” value ([3]; APP/PS1 mice 6M) of the same compound?
The value was 12.70±2.30%.

What about the “ΔS at 30 min (CSF DGE signal difference)” value ([3]; APP/PS1 mice 6M) of the same compound?
Its value is 11.84±4.13%.

What about the “ΔS at 2 min (CSF DGE signal difference)” value ([3]; WT mice 6M, i.v. bolus 0.15 mL 50% D-glucose) of the same compound?
The value was 14.56±2.86%.

What about the “ΔS at 30 min (CSF DGE signal difference)” value ([3]; WT mice 6M) of the same compound?
The value was 3.18±2.95%.

What about the “D-glucose uptake rate μin, WT versus APP/PS1” value ([3]; mouse, in vivo) of the same compound?
Its value is “no significant difference”.

What about the “Smax (maximum CSF DGE signal), APP/PS1 versus WT” value ([3]; mouse, in vivo) of the same compound?
Its value is “significantly lower”.

And the “washout initial rate μout of D-glucose in CSF, APP/PS1 compared to WT” value ([3]; mouse, in vivo)?
The value was “significantly slower”.

What about the “fitted ADGE (amplitude of glucose uptake at equilibrium) of parenchyma” value ([4]; Tau4RΔK mice, cortex) of the same compound?
The value was 1.70±1.33%.

What about the “CSF ADGE” value ([4]; Tau mice, CSF) of the same compound?
The value was 6.72±2.22%.

And the “time at which DGE signal reached a plateau” value ([4]; Tau mice, CSF)?
Its value is “around 25 min”.

What about the “glucose uptake in the cortex (DGE signal intensity)” value ([4]; Tau mice, cortex) of the same compound?
The value was 1.6±1.3%.

And the “fitted ADGE (amplitude of glucose uptake at equilibrium) of parenchyma” value ([4]; WT mice (C57BL/6J), cortex)?
The value was 5.42±0.70%.

What about the “CSF ADGE” value ([4]; WT mice, CSF) of the same compound?
Its value is 7.03±2.12%.

And the “drop of DGE signal from the peak value at 27.5 minutes” value ([4]; WT mice, CSF)?
Its value is “about 1.5±0.5%”.

And the “peak value of DGE signal” value ([4]; WT mice, CSF)?
Its value is 6±0.3%.

And the “time at which DGE signal plateaued” value ([4]; WT mice, CSF)?
Its value is “around 10 min”.

And the “time at which DGE signal reaches a maximum before decay” value ([4]; WT mice, CSF)?
Its value is “around 15 minutes”.

What about the “glucose uptake in the cortex (DGE signal intensity)” value ([4]; WT mice, cortex) of the same compound?
Its value is 4.3±1.3%.

And the half-life ([4]; C57BL/6J, brain parenchyma (cortex), iv, WT mice, cortex, read-out: uptake half-life time of parenchyma)?
The half-life was 4.71 ± 1.03 min.

What about the half-life ([4]; C57BL/6J, intravenous, brain tissue of WT mice, as restated in discussion, read-out: half-life time of glucose uptake obtained by the onVDMP method) of the same compound?
The half-life was 4.71 ± 1.18 min.

What about the half-life ([4]; C57BL/6J, iv, WT mice, CSF, read-out: uptake half-life time of CSF) of the same compound?
Its half-life is 1.24 ± 0.24 min.

And the half-life ([4]; Tau4RΔK, brain parenchyma (cortex), iv, Tau mice, cortex, read-out: uptake half-life time of parenchyma)?
Its half-life is 5.14 ± 0.3 min.

And the half-life ([4]; Tau4RΔK, iv, Tau mice, CSF, read-out: uptake half-life time of CSF)?
Its half-life is 7.8 ± 1.14 min.

What about the “time at which glucose uptake reaches a plateau” value ([4]; parenchymal ROI (cortex), both WT and Tau mice) of the same compound?
The value was “about 20 min”.
